# In PubChem BioAssay AID2368 (The Scripps Research Institute Molecular Screening Center, 2010):
# Target: Protein phosphatase methylesterase 1 (Homo sapiens) (UniProt Q9Y570)
# Assay: PME-1 activity inhibition following gel filtration – gel-based ABPP, late-stage follow-up (AID 2368)
# Details: PME-1 labeling, active compounds read high, concentration not given here
# Protein phosphatase methylesterase 1 (Homo sapiens), sequence (Q9Y570 whole entry, looked up): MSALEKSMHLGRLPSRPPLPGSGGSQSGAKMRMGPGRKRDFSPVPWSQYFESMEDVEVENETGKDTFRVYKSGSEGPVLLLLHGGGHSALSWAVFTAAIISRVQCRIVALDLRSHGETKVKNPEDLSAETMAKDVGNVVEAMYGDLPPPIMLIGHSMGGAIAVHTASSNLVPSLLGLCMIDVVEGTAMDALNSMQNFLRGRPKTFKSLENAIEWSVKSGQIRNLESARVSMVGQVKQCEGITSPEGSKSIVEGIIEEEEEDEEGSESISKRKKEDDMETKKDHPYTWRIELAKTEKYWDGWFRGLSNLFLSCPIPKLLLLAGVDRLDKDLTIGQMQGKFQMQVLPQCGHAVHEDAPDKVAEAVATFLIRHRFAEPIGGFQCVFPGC
row,Compound,inhibition
1,N#C/C(=C\c1cccn1S(=O)(=O)c1cccc(C#N)c1)S(=O)(=O)c1ccc(F)cc1,> 50%
2,N#C/C(=C\c1cccn1S(=O)(=O)c1cccc([N+](=O)[O-])c1)S(=O)(=O)c1ccc(F)cc1,> 50%
